# Patent publication EP4603105A1, “PHARMACEUTICAL COMPOSITION CONTAINING CYCLIC COMPOUND HAVING SELECTIVE KRAS INHIBITORY EFFECT AGAINST HRAS AND NRAS” (CHUGAI SEIYAKU KABUSHIKI KAISHA, priority 2022, dated 2024)
# *1 amine or outer side, *2 acyl side, *3 side chain or, on linkers, in order; H or OH if unused. Where a SMILES comes first, the peptide text is derived from it. Bridges are numbered along the chain shown (N, C = ends). [ ]: non-standard residue; d: D form. The star is where a group is joined. hPhe(3,5-F2-4-CF3) = N[C@@H](CCc1cc(F)c(C(F)(F)F)c(F)c1)C(=O)O; hPhe(3-Cl-4-CF3) = N[C@@H](CCc1ccc(C(F)(F)F)c(Cl)c1)C(=O)O; NPrPhe(4-CF3) = CCCN[C@@H](Cc1ccc(C(F)(F)F)cc1)C(=O)O; X45 = CCCN([C@@H](CC1CCC(F)(F)CC1)C(=O)[*:2])[*:1]; NMeGly(cPent) = CN[C@H](C(=O)O)C1CCCC1; Hyp = O=C(O)[C@@H]1C[C@@H](O)CN1; NEtLeu = CCN[C@@H](CC(C)C)C(=O)O; NMeD = CN[C@@H](CC(=O)O)C(=O)O; NMeL = CN[C@@H](CC(C)C)C(=O)O; Morpholide = C1CN(*)CCO1; Ac5c = NC1(C(=O)O)CCCC1; NEtG = CCNCC(=O)O; Sar = CNCC(=O)O
# Legend:
# [1] = tested on: human lung cancer strain NCI-H441; assay type: cell-based
# In short: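 Signal came from […] measured per well once the reagent was added. Beforehand, cells were cultured at 37°C and 5% carbon dioxide on a compound series serially diluted in dimethyl sulfoxide.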
# [2] = target: GDP-bound NRAS wild-type protein (Homo sapiens, UniProt P01111); test: Binding to NRAS by surface plasmon resonance (SPR), KD and KD ratio to KRAS
# In short: (§1)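 Measured at 30°C: SPR with GDP-loaded, E. coli-expressed biotin-Avi RAS captured (~100–300 RU), ascending 75 s compound injections, HBS pH 7.4 with GDP, MgCl2, 4% DMSO. KD from 1:1 fit.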
# HRAS wild-type protein = HRAS wild-type protein (Homo sapiens, UniProt P01112); test: Binding to HRAS by surface plasmon resonance (SPR), KD and KD ratio to KRAS
# In short: as §1
# [3] = ratio of the KD value with respect to GDP-bound NRAS wild-type protein to the KD value with respect to KRAS
# [4] = ratio of the KD value with respect to HRAS wild-type protein to the KD value with respect to KRAS
# [5] = ratio of KD for GDP-bound NRAS wild-type protein to KD for KRAS
# [6] = ratio of KD for HRAS wild-type protein to KD for KRAS
# HRAS wild-type protein, sequence (P01112 whole entry): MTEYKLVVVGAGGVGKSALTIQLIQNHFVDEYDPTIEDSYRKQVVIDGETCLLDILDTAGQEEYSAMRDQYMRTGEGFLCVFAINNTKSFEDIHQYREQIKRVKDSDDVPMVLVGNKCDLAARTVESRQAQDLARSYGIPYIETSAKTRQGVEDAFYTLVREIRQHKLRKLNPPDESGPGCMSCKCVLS
# GDP-bound NRAS wild-type protein, sequence (P01111 whole entry): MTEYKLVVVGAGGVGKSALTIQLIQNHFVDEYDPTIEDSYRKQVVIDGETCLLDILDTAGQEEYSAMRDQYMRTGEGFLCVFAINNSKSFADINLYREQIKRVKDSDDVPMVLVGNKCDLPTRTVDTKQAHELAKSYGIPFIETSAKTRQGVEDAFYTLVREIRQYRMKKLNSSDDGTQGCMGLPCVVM
SMILES,IC50 [1],"NRAS /KRAS [2, 3]",HRAS /KRAS (HRAS wild-type protein; [4]),"NRAS /KRAS [2, 5]",HRAS /KRAS (HRAS wild-type protein; [6]),NRAS /KRAS ([2]; ratio of KD value for GDP-bound NRAS wild-type protein to KD value for KRAS (SPR)),HRAS /KRAS (HRAS wild-type protein; ratio of KD value for HRAS wild-type protein to KD value for KRAS (SPR))
CC[C@H](C)[C@@H]1NC(=O)[C@H](C)N(C)C(=O)C[C@@H](C(=O)N(C)C)N(C)C(=O)[C@H](C2CCCC2)N(C)C(=O)C2(CCCC2)NC(=O)[C@@H]2CC(F)(F)CN2C(=O)[C@H](CCc2cc(F)c(C(F)(F)F)c(F)c2)NC(=O)CN(C)C(=O)[C@H](Cc2ccc(C(F)(F)F)cc2)N2CCCC[C@@H](C2=O)N(C)C(=O)CN(C)C1=O [PP0583],10.3 nM,C (A compound having a KD ratio of 0.1 or more and less than 3 is denoted as C),C (A compound having a KD ratio of 0.1 or more and less than 3 is denoted as C),–,–,–,–
CCCN1C(=O)CN(C)C(=O)CN(CC)C(=O)[C@H]([C@@H](C)CC)NC(=O)[C@H](CC(C)C)N(C)C(=O)C[C@@H](C(=O)N(C)C)NC(=O)[C@H](C2CCCC2)N(C)C(=O)C2(CCCC2)NC(=O)[C@@H]2C[C@@H](OCC)CN2C(=O)[C@H](CCc2ccc(C(F)(F)F)c(Cl)c2)NC(=O)CN(C)C(=O)[C@@H]1Cc1ccc(C(F)(F)F)cc1 [PP0371] ([NMeL]I[NEtG][Sar][NPrPhe(4-CF3)][Sar][hPhe(3-Cl-4-CF3)][Hyp](Et)[Ac5c][NMeGly(cPent)]D-NMe2; lactam N-11),30.9 nM,–,–,B (a compound having 3 or more and less than 10 is denoted as B),C (A compound having a KD ratio of 0.1 or more and less than 3 is denoted as C),–,–
"CCCN1C(=O)CN(C)C(=O)CN(C)C(=O)[C@H]([C@@H](C)CC)NC(=O)[C@H](CC(C)C)N(C)C(=O)C[C@@H](C(=O)N2CCOCC2)N(C)C(=O)[C@H](C2CCCC2)N(C)C(=O)C2(CCCC2)NC(=O)[C@@H]2CCCN2C(=O)[C@H](CCc2cc(F)c(C(F)(F)F)c(F)c2)NC(=O)CN(C)C(=O)[C@@H]1Cc1ccc(C(F)(F)F)cc1 [PP0753] ([NMeL]I[Sar][Sar][NPrPhe(4-CF3)][Sar][hPhe(3,5-F2-4-CF3)]P[Ac5c][NMeGly(cPent)][NMeD]-Morpholide; lactam N-11)",8.2 nM,B (a compound having 3 or more and less than 10 is denoted as B),C (A compound having a KD ratio of 0.1 or more and less than 3 is denoted as C),–,–,–,–
CCC[C@H]1C(=O)N[C@@H]([C@@H](C)CC)C(=O)N(C2CC2)CC(=O)N(C)[C@H]2C/C=C\CCN(C2=O)[C@@H](Cc2ccc(C(F)(F)F)cc2)C(=O)N(C)CC(=O)N[C@@H](CCc2ccc(C(F)(F)F)c(OC)c2)C(=O)N2C[C@H](OCC)C[C@H]2C(=O)NC2(CC(C)(C)C2)C(=O)N(C)[C@@H](CC2CC2)C(=O)N(C)[C@H](C(=O)N(C)C)CC(=O)N1C [PP2815],188 nM,–,–,A (a compound having 10 or more and less than 20 is denoted as A),A (a compound having 10 or more and less than 20 is denoted as A),–,–
CC[C@H](C)[C@@H]1NC(=O)[C@H](CC)N(C)C(=O)C[C@@H](C(=O)N(CC)CC)N(C)C(=O)[C@H](C2CCCC2)N(C)C(=O)C2(CC(C)(C)C2)NC(=O)[C@@H]2C[C@@H](C)CN2C(=O)[C@H](CCc2ccc(C(F)(F)F)c(OC)c2)NC(=O)CN(C)C(=O)[C@H](Cc2ccc(C)cc2)N2CC/C=C\C[C@@H](C2=O)N(C)C(=O)CN(C)C1=O [PP1841],24.3 nM,–,–,–,–,AA (a compound having 20 or more is denoted as AA),A (a compound having 10 or more and less than 20 is denoted as A)
CCCN1C(=O)CN(C)C(=O)CN(C)C(=O)[C@H]([C@@H](C)CC)NC(=O)[C@H](CC(C)C)N(C)C(=O)C[C@@H](C(=O)N2CCOCC2)N(C)C(=O)[C@H](C2CCCC2)N(C)C(=O)C2(CCCC2)NC(=O)[C@@H]2CCCN2C(=O)[C@H](CCc2ccc(C(F)(F)F)c(Cl)c2)NC(=O)CN(C)C(=O)[C@@H]1CC1CCC(F)(F)CC1 [PP0526] ([NMeL]I[Sar][Sar][X45][Sar][hPhe(3-Cl-4-CF3)]P[Ac5c][NMeGly(cPent)][NMeD]-Morpholide; lactam N-11),6.6 nM,B (a compound having 3 or more and less than 10 is denoted as B),C (A compound having a KD ratio of 0.1 or more and less than 3 is denoted as C),–,–,–,–
CCCN1C(=O)CN(C)C(=O)CNC(=O)[C@H]([C@@H](C)CC)NC(=O)[C@H](CC(C)C)N(CC)C(=O)C[C@@H](C(=O)N2CCOCC2)N(C)C(=O)[C@H](C2CCCC2)N(C)C(=O)C2(CCCC2)NC(=O)[C@@H]2CCCN2C(=O)[C@H](CCc2ccc(C(F)(F)F)c(Cl)c2)NC(=O)CN(C)C(=O)[C@@H]1Cc1ccc(C(F)(F)F)cc1 [PP1967] ([NEtLeu]IG[Sar][NPrPhe(4-CF3)][Sar][hPhe(3-Cl-4-CF3)]P[Ac5c][NMeGly(cPent)][NMeD]-Morpholide; lactam N-11),10.9 nM,B (a compound having 3 or more and less than 10 is denoted as B),B (a compound having 3 or more and less than 10 is denoted as B),–,–,–,–
